Literature values in US20050277597A1, “Use of N-L-alpha-aspartyl-L-phenylalanine 1-methyl ester to treat sunburn and other burns” (Oklahoma Medical Research Foundation, priority 2004, published 2005).
Where a SMILES comes first, the peptide text is derived from it.

COC(=O)[C@H](Cc1ccccc1)NC(=O)[C@@H](N)CC(=O)O [aspartame, N-L-aspartyl-L-phenyalanine 1-methyl ester] (H-Asp-Phe-OMe)
maximum solubility in water (pH 2.2, 25° C.): 20 mg/mL | minimum solubility in water (pH 5.2 (pHi), 25° C.): 13.5 mg/mL
